# From patent publication US12247022B2, “Combinations for treatment of NASH/NAFLD and related diseases” (Pfizer Inc., priority 2018, dated 2025)
# How the values were obtained:
# Assay type in all cases: in vivo, rat
# [1] = system: alpha smooth muscle actin (αSMA); experiment: Hepatic αSMA gene expression (qPCR), CDAHFD fed rats; conditions: twice daily for 6 weeks, Compound A 5 mg/kg, Compound D 30 mg/kg, or co-administration, Actb
# Protocol: A randomized, vehicle-controlled, 5-parallel arm study was conducted in male Wistar-Han rats (Charles River (Boston, MA)) fed a choline-deficient and high fat diet (CDAHFD) (Research diets; A16092003) to identify differences in improvements in markers of hepatic inflammation and fibrosis when administering either Compound A or Compound D alone as monotherapy or in combination. Standard laboratory conditions were used to house 60 rats (˜200 g); they were double housed and kept under 12:12-hour reverse light-dark schedule (lights off at 8:00 AM). Rats were fed choline deficient and high fat diet (CDAHFD) beginning 6-weeks prior to initiation of the study. Rats, randomized into 4 dosing groups (n=12/group), received twice daily administration of vehicle, Compound A (5 mg/kg) monotherapy, Compound D (30 mg/kg) monotherapy, or co-administration Compound A (5 mg/kg) and Compound D (30 mg/kg) for a period of 6-weeks. […] Histology was assessed following 6-weeks of drug administration which corresponded to 12 weeks on the CDAHFD. […]
# Following the 12-weeks on CDAHFD, the animals were sacrificed by CO2 asphyxiation. […] A portion of the pulverized liver sample from each animal was processed and analyzed for gene expression markers of fibrogenesis. Rat taqman probes against […]SMA and COL1A1 were all assessed using Actb as housekeeping gene on qPCR.
# [2] = system: fatty acid synthase (FASN); experiment: Hepatic lipogenic gene expression (qPCR), Western diet fed rats: FASN; conditions: Actb housekeeping gene
# Protocol: (§1) A randomized, vehicle-controlled, 8-parallel arm study was conducted in male Sprague-Dawley rats (Charles River (Boston, MA)) to obtain circulating and hepatic TG levels. Standard laboratory conditions were used to house 96 rats (˜200 g); they were double housed and kept under 12:12-hour reverse light-dark schedule (lights off at 8:00 AM). Rats were randomized into chow or Western diet groups and dose groups upon arrival and were given a 14-day lead-in period on either standard rat chow or Western diet prior to the start of the study. Standard Laboratory Rodent chow diet, 5053, was from LabDiet (PMI, St Louis, Missouri). Western Diet, D12079Bi, was from Research Diets (New Brunswick, New Jersey).
# (§2) Starting on Day 1 of the study, rats were dosed orally (10 mL/kg) with either vehicle control (0.5% MC (wt/volume %) in dionized water), low or high doses of Compound A (1 mg/kg or 10 mg/kg QD, respectively), low or high doses of Compound D (5 mg/kg or 30 mg/kg BID respectively), or co-administration of low doses (Compound A at 1 mg/kg QD and Compound D at 5 mg/kg BID), or co-administration of high doses (Compound A at 10 mg/kg QD and Compound D at 30 mg/kg BID) […]
# (§3) Another portion of the pulverized liver was processed and analyzed for lipogenic gene expression. Rat taqman probes against ACC1, FASN, SCD1, PCSK9 and SREBP-1c were all assessed using Actb as housekeeping gene on qPCR.
# [3] = system: acetyl-CoA carboxylase (ACC1); experiment: Hepatic lipogenic gene expression (qPCR), Western diet fed rats: ACC1; conditions: Actb housekeeping gene, Day 28 liver
# Protocol: as §1, §2, §3
# [4] = system: Western diet fed Sprague Dawley rats; experiment: Hepatic triglyceride (steatosis), Western diet fed rats; conditions: oral, Day 28
# Protocol: as §1
# Starting on Day 1 of the study, rats were dosed orally (10 mL/kg) with either vehicle control (0.5% MC (wt/volume %) in dionized water), low or high doses of Compound A (1 mg/kg or 10 mg/kg QD, respectively), low or high doses of Compound D (5 mg/kg or 30 mg/kg BID respectively), or co-administration of low doses (Compound A at 1 mg/kg QD and Compound D at 5 mg/kg BID), or co-administration of high doses (Compound A at 10 mg/kg QD and Compound D at 30 mg/kg BID)
# On the last day of the study (Day 28), rats were sacrificed for tissue collection after a 4 hour fast, 2 hours post-dose: two hours post-dose, blood for determining plasma analytes was collected via lateral tail vein and then the animals were sacrificed by CO2 asphyxiation. Blood was transferred to BD Microtainer tubes coated with K2EDTA (PN365974), centrifuged at 4° C. and the plasma transferred to a 96-well microtitre plate and stored at −20° C. Livers were rapidly removed, freeze-clamped in a Wollenberg clamp pre-cooled in liquid N2 individually wrapped in aluminum foil and subsequently stored at −80° C.
# Tissue pulverization: Frozen livers were rapidly pulverized on an aluminum block cooled in liquid N2, ensuring the tissue remained frozen throughout the pulverization. The pulverized tissues were transferred and stored in 7 mL polypropylene conical tubes at −80° C. until analysis.
# Extraction for hepatic triglyceride: Approximately 50 to 100 mg of pulverized tissue was added to a 2 mL lysing matrix D tube (MP Bio) containing 800 μL ice cold 1:1 CHCl3:MEOH. Samples were immediately extracted at 4° C. using Qiagen Tissue Lyser II (Qiagen Cat No. 85300) for 4 minutes at 30 Hz. The homogenate was then transferred to 13×100 mm glass tubes and placed on ice. The lysis tubes were then rinsed with 800 μL of 1:1 CHCl3:MeOH, vortexed for 30 seconds and added to the 13×100 mm glass tubes. While on ice, 2.4 ml of 100% CHCl3 was added to all glass vials to bring the ratio of CHCl3:MeOH to 4:2. Samples were then placed in the −20° C. freezer overnight. […]
# [5] = high dose (Compound A 10 mg/kg QD; Compound D 30 mg/kg BID; or both co-administered)
# [6] = low dose (Compound A 1 mg/kg QD; Compound D 5 mg/kg BID; or both co-administered)
SMILES,hepatic αSMA gene expression [1],hepatic FASN gene expression relative to Western Diet fed and vehicle treated animals ([2]; Day 28 liver),hepatic ACC1 gene expression relative to Western Diet fed and vehicle treated animals [3],"reduction in steatosis (hepatic triglyceride), relative to vehicle administered Western diet fed rats [4, 5]","reduction in steatosis (hepatic triglyceride), relative to vehicle administered Western diet fed rats [4, 6]",hepatic FASN gene expression relative to Western Diet fed and vehicle treated animals ([2]; Compound A high dose only (10 mg/kg QD))
"CCOc1cccnc1Oc1cncc(-c2ncc(C(=O)N[C@H]3CCOC3)cn2)c1 [Compound D, (S)-2-(5-((3-ethoxypyridin-2-yl)oxy)pyridin-3-yl)-N-(tetrahydrofuran-3-yl)pyrimidine-5-carboxamide]",reduced,decreased expression,decreased expression,30%,25%,–
"COc1cc(C(=O)N2CCC3(CC2)CC(=O)c2c(cnn2C(C)C)C3)cc(-c2ccc(C(=O)O)cc2)n1 [Compound A, 4-(4-(1-isopropyl-7-oxo-1,4,6,7-tetrahydrospiro[indazole-5,4′-piperidine]-1′-carbonyl)-6-methoxypyridin-2-yl)benzoic acid]",reduced,–,trended to further increase,53%,36%,trended to further increase
